Results: ChEMBL document CHEMBL1141324, “Saponins from the roots of Nylandtia spinosa” (J Nat Prod, 2007)
Values after ≈ are worked out from the molar mass of the structure shown.

How the values were obtained:
HCT-116 = assay: Cytotoxicity against human HCT116 cells by MTT assay; format: functional, cell-based
HT-29 = assay: Cytotoxicity against human HT29 cells by MTT assay; format: functional, cell-based

Compound	IC50 (HCT-116) [µg/mL]	IC50 (HT-29) [µg/mL]
C[C@@H]1O[C@H](OC(=O)[C@]23CCC(C)(C)CC2C2=CCC4[C@@]5(C)C[C@H](O)[C@H](O[C@@H]6O[C@H](CO)[C@@H](O)[C@H](O)[C@H]6O)[C@@](C)(C(=O)O)[C@@H]5CC[C@@]4(C)[C@]2(CO)CC3)[C@@H](O[C@H]2O[C@H](C)[C@@H](O[C@@H]3OC[C@@H](O[C@@H]4O[C@H](CO)[C@H](O)[C@H](O)[C@H]4O)[C@H](O[C@@H]4OC[C@H](O)[C@H](O)[C@H]4O)[C@H]3O)[C@H](O)[C@@H]2O)[C@H](O)[C@@H]1O (stereo not given in full)	> 5	> 5
C[C@@H]1O[C@H](OC(=O)[C@]23CCC(C)(C)CC2C2=CCC4[C@@]5(C)C[C@H](O)[C@H](O[C@@H]6O[C@H](CO)[C@@H](O)[C@H](O)[C@H]6O)[C@@](C)(C(=O)O)[C@@H]5CC[C@@]4(C)[C@]2(CO)CC3)[C@@H](O[C@H]2O[C@H](C)[C@@H](O[C@@H]3OC[C@@H](O[C@@H]4O[C@H](CO)[C@H](O)[C@H](O)[C@H]4O)[C@H](O[C@@H]4OC[C@H](O)[C@H](O)[C@H]4O)[C@H]3O)[C@H](O[C@@H]3OC[C@](O)(CO)[C@H]3O)[C@@H]2O)[C@H](O)[C@@H]1O (stereo not given in full)	> 5	> 5
CC(=O)O[C@H]1C(=O)[C@@]2(C)[C@H]([C@H](OC(=O)c3ccccc3)[C@]3(O)C[C@H](OC(=O)[C@H](O)[C@@H](NC(=O)c4ccccc4)c4ccccc4)C(C)=C1C3(C)C)[C@]1(OC(C)=O)CO[C@@H]1C[C@@H]2O [PACLITAXEL]	0.008 (≈ 0.00937 µM)	0.0053 (≈ 0.00621 µM)
C[C@@H]1O[C@H](OC(=O)[C@]23CCC(C)(C)CC2C2=CCC4[C@@]5(C)C[C@H](O)[C@H](O[C@@H]6O[C@H](CO)[C@@H](O)[C@H](O)[C@H]6O)[C@@](C)(C(=O)O)[C@@H]5CC[C@@]4(C)[C@]2(CO)CC3)[C@@H](O[C@H]2O[C@H](C)[C@@H](O[C@@H]3OC[C@@H](O)[C@H](O[C@@H]4OC[C@](O)(CO)[C@H]4O)[C@H]3O)[C@H](O)[C@@H]2O)[C@H](O)[C@@H]1O (stereo not given in full)	> 5	> 5
C[C@@H]1O[C@H](OC(=O)[C@]23CCC(C)(C)CC2C2=CCC4[C@@]5(C)C[C@H](O)[C@H](O[C@@H]6O[C@H](CO)[C@@H](O)[C@H](O)[C@H]6O)[C@@](C)(C(=O)O)[C@@H]5CC[C@@]4(C)[C@]2(CO)CC3)[C@@H](O[C@H]2O[C@H](C)[C@@H](O[C@@H]3OC[C@@H](O[C@@H]4OC[C@](O)(CO)[C@H]4O)[C@H](O)[C@H]3O[C@H]3O[C@@H](CO)[C@@H](O)[C@@H](O)[C@@H]3O)[C@H](O)[C@@H]2O)[C@H](O)[C@@H]1O (stereo not given in full)	> 5	> 5
